In patent publication US6878388B1, “Vanadium compounds for treating proliferative cell disorders” (Parker Hughes Institute, priority 2000, dated 2005):

Key:
[1] = tested on: MDA-MB-231 breast cancer cells; assay: MTT cytotoxicity assay, MDA-MB-231; assay type: cell-based, human; conditions: MDA-MB-231 cells, 48 h incubation, 3 independent experiments, read-out: IC50 (mean ± SE)
Protocol: Human brain tumor cells lines U87 MG (Cat.# HTB-14), U118 MG (Cat. # HTB-15), U138 (Cat # HTB-16), U373 MG (CAT. # HTB-17), and T98G (Cat. # CRL-1690) and breast cancer cell lines BT-20 (Cat # HTB-19), MDA-MB-231 (Cat # HTB-26), MDA-MB-361 (Cat # HTB-27), and MCF-7 (Cat # HTB-22) were obtained from American Type Culture Collection (ATCC, Rockville, Md.) and maintained as continuous cell lines in Dulbecco's modified Eagles's medium (U87, U118, U138, U373, T98 and BT-20) or Leibovitz's L-15 medium (MDA-MB-231 and MDA-MB-361). All media were supplemented with 10% fetal calf serum (FCS), 4 mM glutamine, 100 U/ml penicillin G and […] streptomycin sulfate. All tissue culture reagents were obtained from Life Technologies Inc. (GIBCO-BRL, Gaithersburg, Md.).
The cytotoxicity of [VO(SO4)(Me2-Phen)2] against human cancer cell lines was analyzed using the MTT (3-[4,5-dimethylthiazol-2-yl]-2,5-diphenyl tetrazolium bromide) assay (Boehringer Mannheim Corp., Indianapolis, Ind.) as described previously (Narla et al., Clin Cancer Res., 4: 1405-1414, 1998). […] The absorbance at 540 nm (a reference wavelength of 690 nm was used) of the solution in each well was measured using a microplate reader (Labsystems). The percent survival and the IC50 values were calculated using Graphpad Prism v2.0 (Graphpad Software, Inc., San Diego, Calif.) as described previously (Narla et al., Supra). […]

[2] = tested on: U87 human glioblastoma xenografts; assay: SCID mouse xenograft model of human glioblastoma; assay type: in vivo, SCID mice
Protocol: FIGS. 1A-1B illustrate the in vivo antitumor activity of the vanadium compound, [VO(SO4)(Me2-Phen)2] against human glioblastoma and breast cancer in SCID mice. The effects of daily treatment with [VO(SO4)(Me2-Phen)2] (10 mg/kg/day) or 5% DMSO in PBS (given five days per week for four weeks beginning the day after inoculation) on tumor growth and progression of glioblastoma (FIG. 1A) and breast cancer (FIG. 1B) are illustrated. Comparisons between groups were done using the log-rank test.
The animal protocols used in this study were approved by the Parker Hughes Institute Institutional Animal Care and Use Committee (IACUC). […]
The right and left hind legs of the SCID mice were inoculated subcutaneously with 1×10^6 U87 human glioblastoma and 1×10^6 MDA-MB-231 beast cancer cells, respectively, in 0.1 mL PBS. […] Mice were monitored daily for health status as well as tumor growth and were sacrificed if they became moribund, developed tumors which impeded their ability to attain food or water, or at the ed of the six-week observation period. Tumors were measured using Vernier calipers three times per week. Tumor volumes were calculated according to the following formula, as described previously (Narla et al., Clin Cancer Res., 4: 1405-14, 1998; Friedman et al., Cancer Res., 55: 2853-2857, 1995): Tumor volume=(Width)^2(Length)/2. […]

Cc1ccnc2c1ccc1c(C)ccnc12.Cc1ccnc2c1ccc1c(C)ccnc12.O=S(=O)([O-])[O-].[O]=[V+2] [[VO(SO4)(Me2-Phen)2], bis(4,7-dimethyl-1,10-phenanthroline) sulfatooxovanadium (IV)]
IC50 [1]: 500 ± 100 nM | average size of tumor xenografts ([2]; U87, 1.5 months after inoculation, 10 mg/kg i.p., vehicle control 6928±653, P=0.007): 3199±646 mm^3 | mice remaining alive and free of detectable tumors for >16 days ([2]; U87 xenografts, 10 mg/kg/dose i.p., five days per week for four weeks): 40%
